What was measured:
[1] = cited from earlier work
[2] = tested on: AU565 human breast cancer cells; test: Combination study (MTT), AU565 breast cancer cells, Example 6; assay type: cell-based; conditions: 6 days, #3 at 2%, #5 at 4%, #6 at 12.5%, FIG. 4
From the text: To determine if a combination of antimicrobial agents plus anti-hibernation agents would act synergistically to inhibit cancer, we carried out another study with the human breast cancer cell line AU565 in vitro. We used solution #3 as described above, which included isoniazid (INH), rifampin, ethambutol, minocycline, metronidazole, acyclovir and telithromycin at a 2% concentration of the previous mixture used in Example 5. This was to decrease the cell growth inhibition to ease interpretation of the results. We combined #3 with #6 (curcumin) and #3 with #5 (luteolin) to investigate the synergistic potential of these combinations using the following procedure. […] AU565 human breast cancer cells were routinely maintained in RPMI-1640 medium supplemented with 10% fetal bovine serum, 2 mM sodium pyruvate, and 4.2 g/L glucose. The cells were cultured at 37° C. in an atmosphere of 95% air/5% CO2 and 100% humidity. When cells reached 80% confluence, they were harvested using 0.25% trypsin/EDTA solution. The harvested cells were re-suspended in appropriate medium and reseeded in 96-well plate at a density of 3,000 cells/well/200 μl. Cells were allowed to attach for 24 h, then various concentrations of the test compositions were added to each appropriate well. […] At the end of 6 days, viable cells were measured by MTT assay as described above in Example 2. […]

Row | Structure (SMILES) | half life [1] | percent inhibition of tumor cell growth [2]
1 | O=C1O[C@H]([C@@H](O)CO)C(O)=C1O [Ascorbic acid] | 30 min | 
2 | O=c1cc(-c2ccc(O)c(O)c2)oc2cc(O)cc(O)c12 [Sample #5, Luteolin] |  | 10%
3 | COc1cc(/C=C/C(=O)CC(=O)/C=C/c2ccc(O)c(OC)c2)ccc1O [Sample #6, Curcumin] |  | 9%

— patent publication US8075902B2, “Diagnosis and treatment of cancer related to human dormancy” (priority 2007, dated 2011)
